From PubChem BioAssay (NCI) come the findings set out here.

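Cells were grown in 96-well plates and exposed to each compound for 48 hours at five concentrations; endpoints were interpolated linearly between bracketing concentrations, or set to the highest concentration if not reached. At the GI50, growth is halved. TGI: total growth inhibition.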

Some test systems named below: A549 NSCLC; ACHN renal; HCT-15 colon; K-562 leukemia; OVCAR-4 ovarian; OVCAR-8 ovarian; SN12C renal; SNB-75 CNS; SW-620 colon; UACC-257 melanoma.
Holding throughout (experiment): DTP human tumour cell line panel, 48 h

What is called GI50 is the concentration at which growth is held to half of that of the control. In general, TGI refers to the concentration at which net growth stops. Turning to `COc1ccc2c(c1)/C(=C\c1cccnc1)C(=O)N2`, the GI50 in the assay with A549 NSCLC is 18.2 µM; with ACHN renal, 18.5 µM; in the assay with HCT-15 colon, 14.4 µM; in the assay with K-562 leukemia, 13.8 µM; in the assay with OVCAR-4 ovarian, 38.2 µM; with OVCAR-8 ovarian it was 11.8 µM. In addition, the GI50 with SN12C renal is 7.38 µM; in the assay on SNB-75 CNS it was 27.9 µM; in the assay on SW-620 colon it was 41 µM; in the assay with UACC-257 melanoma, 14.8 µM. For the same molecule, the TGI in the assay on A549 NSCLC was 56.7 µM; with ACHN renal, 38.9 µM; in the assay with HCT-15 colon, 39.5 µM; in the assay on K-562 leukemia, above 100 µM; with OVCAR-4 ovarian, above 100 µM; in the assay on OVCAR-8 ovarian it was 43.6 µM. Further, the TGI with SN12C renal is 29.4 µM; with SNB-75 CNS, 68.1 µM; with SW-620 colon it was above 100 µM; with UACC-257 melanoma it was 31.8 µM.
For the molecule `COc1ccc2c(c1)C(=O)c1c-2n(CCCN=[N+]=[N-])c(=O)c2cc(N(C)C)ccc12`, the GI50 with A549 NSCLC was above 100 µM; in the assay on ACHN renal, above 100 µM; with HCT-15 colon it was above 100 µM; with K-562 leukemia, above 100 µM; in the assay with OVCAR-4 ovarian, above 100 µM; with OVCAR-8 ovarian, 84.6 µM. Further, the GI50 was above 100 µM in the assay with SN12C renal, 7.21 µM in the assay with SNB-75 CNS, above 100 µM with SW-620 colon and above 100 µM with UACC-257 melanoma. Also, the TGI in the assay with A549 NSCLC, in the assay with ACHN renal, in the assay with HCT-15 colon, in the assay with K-562 leukemia, in the assay on OVCAR-4 ovarian and in the assay with OVCAR-8 ovarian was above 100 µM throughout. In addition, the TGI with SN12C renal was above 100 µM; with SNB-75 CNS, 56.2 µM; in the assay on SW-620 colon, above 100 µM; in the assay with UACC-257 melanoma, above 100 µM.
Consider `O=Cc1ccccc1OCCOc1cc(OCCOc2ccccc2C=O)c(OCCOc2ccccc2C=O)cc1OCCOc1ccccc1C=O`, for which the TGI was above 100 µM in the assay with A549 NSCLC; above 92.5 µM in the assay with ACHN renal; above 100 µM in the assay on HCT-15 colon; above 100 µM in the assay with K-562 leukemia; above 100 µM in the assay with OVCAR-4 ovarian; above 100 µM in the assay on OVCAR-8 ovarian. The TGI was above 100 µM in the assay with SN12C renal, 23.9 µM in the assay with SNB-75 CNS, above 100 µM in the assay with SW-620 colon and above 100 µM in the assay on UACC-257 melanoma.
Turning to `CN(C)c1ccc([O-])cc1.CN(C)c1ccc([O-])cc1.CN(C)c1ccc([O-])cc1.CN(C)c1ccc([O-])cc1.[Ti+4]`, the GI50 in the assay on A549 NSCLC was 51.9 µM; in the assay on ACHN renal it was 56.3 µM; in the assay on HCT-15 colon, above 100 µM; in the assay with K-562 leukemia, 37.9 µM; with OVCAR-4 ovarian it was 75.3 µM; with OVCAR-8 ovarian, 73.7 µM. In addition, the GI50 in the assay with SN12C renal was above 100 µM; in the assay with SNB-75 CNS, 27.2 µM; in the assay with SW-620 colon, 69.9 µM; in the assay with UACC-257 melanoma, above 100 µM. In addition, the TGI in the assay with A549 NSCLC, in the assay on ACHN renal, with HCT-15 colon, in the assay with K-562 leukemia, with OVCAR-4 ovarian and with OVCAR-8 ovarian was above 100 µM each time. The TGI in the assay with SN12C renal, in the assay on SNB-75 CNS, in the assay on SW-620 colon and in the assay with UACC-257 melanoma was above 100 µM each time.
`CC(=O)Nc1ccc(C(=O)NN2C(=O)C(Cl)C2c2ccc([N+](=O)[O-])cc2)cc1` (stereo not given): the TGI in the assay on A549 NSCLC, in the assay with ACHN renal, in the assay on HCT-15 colon, in the assay with K-562 leukemia, in the assay on OVCAR-4 ovarian and in the assay on OVCAR-8 ovarian was above 100 µM throughout. Moreover, the total growth inhibition concentration (TGI) with SN12C renal, in the assay with SNB-75 CNS, in the assay with SW-620 colon and in the assay on UACC-257 melanoma was above 100 µM throughout.
`O=C1C=C(NCCNC(=S)Nc2ccccc2)c2nccc3c2c1nc1ccccc13`: the GI50 was 44.7 µM in the assay on A549 NSCLC; 38.6 µM in the assay on ACHN renal; 34.9 µM with HCT-15 colon; 35.1 µM in the assay on K-562 leukemia; 92.7 µM in the assay with OVCAR-4 ovarian; above 100 µM in the assay on OVCAR-8 ovarian. The GI50 is 23.5 µM in the assay with SN12C renal, above 100 µM in the assay with SNB-75 CNS, 32.2 µM in the assay with SW-620 colon and 93.2 µM in the assay on UACC-257 melanoma. For the same molecule, the TGI in the assay with A549 NSCLC, in the assay on ACHN renal, in the assay with HCT-15 colon, in the assay on K-562 leukemia, with OVCAR-4 ovarian and with OVCAR-8 ovarian was above 100 µM in each case. Moreover, the TGI with SN12C renal, in the assay with SNB-75 CNS, in the assay on SW-620 colon and in the assay on UACC-257 melanoma was above 100 µM in each case.
As to `CCCCCCCNc1nc(C(=O)OCC)ncc1-c1ccc(C(F)(F)F)cc1`, the GI50 in the assay with A549 NSCLC was above 100 µM; in the assay with ACHN renal, 32 µM; in the assay on HCT-15 colon, 33.2 µM; with K-562 leukemia it was 36.8 µM; in the assay with OVCAR-4 ovarian it was 13.8 µM; with OVCAR-8 ovarian, 40.2 µM. The GI50 in the assay on SN12C renal is 33.8 µM; in the assay on SNB-75 CNS it was 41.7 µM; with SW-620 colon it was 41.5 µM; with UACC-257 melanoma, 26.6 µM. Further, the TGI in the assay with A549 NSCLC, in the assay with ACHN renal, with HCT-15 colon, with K-562 leukemia, in the assay on OVCAR-4 ovarian and in the assay with OVCAR-8 ovarian was above 100 µM throughout. In addition, the TGI was above 100 µM with SN12C renal, above 100 µM in the assay on SNB-75 CNS, above 100 µM in the assay with SW-620 colon and 75.6 µM with UACC-257 melanoma.
For the molecule `COc1ccc(N2Cc3cnc(Nc4ccccc4)nc3N([C@@H]3CC[C@@H](O)C3)C2=O)cc1`, the GI50 in the assay with A549 NSCLC is 5.16 µM; in the assay with ACHN renal it was 0.984 µM; in the assay on HCT-15 colon, 1.66 µM; in the assay with K-562 leukemia, 5.67 µM; in the assay on OVCAR-4 ovarian it was 2.43 µM; with OVCAR-8 ovarian, 4.86 µM. In addition, the GI50 in the assay on SN12C renal is 1.31 µM; in the assay on SNB-75 CNS, 0.377 µM; in the assay on SW-620 colon it was 3.81 µM; in the assay on UACC-257 melanoma, 7.36 µM. The TGI with A549 NSCLC, with ACHN renal, in the assay with HCT-15 colon, in the assay on K-562 leukemia, in the assay on OVCAR-4 ovarian and in the assay on OVCAR-8 ovarian was above 25 µM throughout. Further, the TGI in the assay on SN12C renal is above 25 µM; in the assay on SNB-75 CNS, 3.58 µM; with SW-620 colon, above 18.2 µM; in the assay on UACC-257 melanoma, above 25 µM.
Regarding `Nc1ncnc2c1ncn2C1CCC(COS(N)(=O)=O)C1` (stereo not given), the TGI in the assay on A549 NSCLC, with ACHN renal, in the assay on HCT-15 colon, with K-562 leukemia, with OVCAR-4 ovarian and in the assay on OVCAR-8 ovarian was above 100 µM throughout. The TGI in the assay on SN12C renal, in the assay with SNB-75 CNS, with SW-620 colon and in the assay with UACC-257 melanoma was above 100 µM in each case.
